From patent US11661426B2, “Imidazole-containing inhibitors of ALK2 kinase” (BioCryst Pharmaceuticals, Inc., priority 2017, dated 2023)

biological target: ALK2 (Homo sapiens (Human), UniProt Q04771); assay: ALK2 inhibition, LanthaScreen Eu Kinase Binding Assay (ThermoFisher Scientific / Life Technologies); details: read-out: Measured Ki (IC50) Value for Compounds: IC50
Procedure: Biochemical assays to measure the inhibitory effects of the compounds were performed by ThermoFisher Scientific (Life Technologies). ALK2 inhibition was tested using LanthaScreen™ Eu Kinase Binding Assay screening protocol.

Chain of ALK2 (Q04771 21-509): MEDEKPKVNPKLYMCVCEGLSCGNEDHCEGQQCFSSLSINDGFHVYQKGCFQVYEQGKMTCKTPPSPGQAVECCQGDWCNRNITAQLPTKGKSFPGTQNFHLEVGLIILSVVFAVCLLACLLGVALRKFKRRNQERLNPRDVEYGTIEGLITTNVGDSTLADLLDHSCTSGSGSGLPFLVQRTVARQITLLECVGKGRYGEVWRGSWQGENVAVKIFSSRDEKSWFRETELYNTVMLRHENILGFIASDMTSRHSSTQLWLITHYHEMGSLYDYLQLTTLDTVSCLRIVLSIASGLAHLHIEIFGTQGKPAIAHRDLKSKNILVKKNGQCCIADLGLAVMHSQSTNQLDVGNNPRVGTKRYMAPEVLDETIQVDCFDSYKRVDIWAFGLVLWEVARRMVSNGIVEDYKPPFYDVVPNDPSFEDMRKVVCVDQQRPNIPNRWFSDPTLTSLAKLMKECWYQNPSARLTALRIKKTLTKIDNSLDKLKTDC

| IC50 [nM] | SMILES |
| --- | --- |
| < 100 | COc1cc(-n2cnc(Nc3nc(N4CCC[C@H]4C(N)=O)nc4sc(CN5CCOCC5)cc34)c2)cc(OC)c1OC [Compound 407b, (S)-1-(6-(morpholinomethyl)-4-((1-(3,4,5-trimethoxyphenyl)-1H-imidazol-4-yl)amino)thieno[2,3-d]pyrimidin-2-yl)pyrrolidine-2-carboxamide] |
| < 100 | COc1cc(-n2cnc(Nc3nc(N4CCC[C@H]4C(N)=O)nc4sc(CN5CCN(c6ccccn6)CC5)cc34)c2)cc(OC)c1OC [Compound 408b, (S)-1-(6-((4-(pyridin-2-yl)piperazin-1-yl)methyl)-4-((1-(3,4,5-trimethoxyphenyl)-1H-imidazol-4-yl)amino)thieno[2,3-d]pyrimidin-2-yl)pyrrolidine-2-carboxamide] |
| < 100 | COc1cc(-n2cnc(Nc3nc(N4CCCCC4)c4ccc(CN5CCCC5)cc4n3)c2)cc(OC)c1OC [Compound 409e, 4-(piperidin-1-yl)-7-(pyrrolidin-1-ylmethyl)-N-(1-(3,4,5-trimethoxyphenyl)-1H-imidazol-4-yl)quinazolin-2-amine] |
| < 100 | COc1cc(-n2cnc(Nc3nc(N4CCC[C@H]4CO)nn4c(C(=O)N5CCCCC5)ccc34)c2)cc(OC)c1OC [Compound 410e, (S)-(2-(2-(hydroxymethyl)pyrrolidin-1-yl)-4-((1-(3,4,5-trimethoxyphenyl)-1H-imidazol-4-yl)amino)pyrrolo[2,1-f][1,2,4]triazin-7-yl)(piperidin-1-yl)methanone] |
| 100 to 1000 | COC(=O)c1cc(Nc2cn(-c3cc(OC)c(OC)c(OC)c3)cn2)c2occc2c1 [Compound 411b, methyl 7-((1-(3,4,5-trimethoxyphenyl)-1H-imidazol-4-yl)amino)benzofuran-5-carboxylate] |
| 100 to 1000 | COc1cc(-n2cnc(Nc3cc(C(=O)O)cc4ccoc34)c2)cc(OC)c1OC [Compound 411c, 7-((1-(3,4,5-trimethoxyphenyl)-1H-imidazol-4-yl)amino)benzofuran-5-carboxylic acid] |
| 100 to 1000 | COc1cc(-n2cnc(Nc3cc(C(=O)N4CCC[C@H]4C(N)=O)cc4ccoc34)c2)cc(OC)c1OC [Compound 411d, (S)-1-(7-((1-(3,4,5-trimethoxyphenyl)-1H-imidazol-4-yl)amino)benzofuran-5-carbonyl)pyrrolidine-2-carboxamide] |
| 100 to 1000 | COc1cc(-n2cnc(Nc3cc(C(=O)N4CCCC4)cc4ccoc34)c2)cc(OC)c1OC [Compound 412a, pyrrolidin-1-yl(7-((1-(3,4,5-trimethoxyphenyl)-1H-imidazol-4-yl)amino)benzofuran-5-yl)methanone] |
| 100 to 1000 | COc1cc(-n2cnc(Nc3cc(C(=O)N4CCC[C@@H](N)C4)cc4ccoc34)c2)cc(OC)c1OC [Compound 413b, (R)-(3-aminopiperidin-1-yl)(7-((1-(3,4,5-trimethoxyphenyl)-1H-imidazol-4-yl)amino)benzofuran-5-yl)methanone] |
| 100 to 1000 | OC[C@@H]1CCCN1c1nc(Nc2cn(-c3ccc(OC(F)(F)F)cc3)cn2)c2cccn2n1 [Compound 414d, (S)-(1-(4-((1-(4-(trifluoromethoxy)phenyl)-1H-imidazol-4-yl)amino)pyrrolo[2,1-f][1,2,4]triazin-2-yl)pyrrolidin-2-yl)methanol] |
| 100 to 1000 | COc1cc(-n2cnc(Nc3nc(N4CCC[C@H]4CO)c4cccn4n3)n2)cc(OC)c1OC [Compound 415d, (S)-(1-(2-((1-(3,4,5-trimethoxyphenyl)-1H-1,2,4-triazol-3-yl)amino)pyrrolo[2,1-f][1,2,4]triazin-4-yl)pyrrolidin-2-yl)methanol] |
| < 100 | COC(=O)c1cc(OC)cc(-n2cnc(Nc3nc(N4CCC[C@H]4CO)nn4cccc34)c2)c1 [Compound 416e, (S)-methyl 3-(4-((2-(2-(hydroxymethyl)pyrrolidin-1-yl)pyrrolo[2,1-f][1,2,4]triazin-4-yl)amino)-1H-imidazol-1-yl)-5-methoxybenzoate] |
| 100 to 1000 | COc1cc(C(=O)N2CCC[C@H]2CO)cc(-n2cnc(Nc3nc(N4CCC[C@H]4CO)nn4cccc34)c2)c1 [Compound 416f, ((S)-2-(hydroxymethyl)pyrrolidin-1-yl)(3-(4-((2-((S)-2-(hydroxymethyl)pyrrolidin-1-yl)pyrrolo[2,1-f][1,2,4]triazin-4-yl)amino)-1H-imidazol-1-yl)-5-methoxyphenyl)methanone] |
| > 1000 | OC[C@@H]1CCCN1c1nc(Nc2cn(-c3ccc(OC(F)(F)F)c(Cl)c3)cn2)c2cccn2n1 [Compound 417e, (S)-(1-(4-((1-(3-chloro-4-(trifluoromethoxy)phenyl)-1H-imidazol-4-yl)amino)pyrrolo[2,1-f][1,2,4]triazin-2-yl)pyrrolidin-2-yl)methanol] |
| > 1000 | COc1cc(-c2nnc(Nc3nc(N4CCC[C@H]4CO)c4cccn4n3)o2)cc(OC)c1OC [Compound 418b, (S)-(1-(2-((5-(3,4,5-trimethoxyphenyl)-1,3,4-oxadiazol-2-yl)amino)pyrrolo[2,1-f][1,2,4]triazin-4-yl)pyrrolidin-2-yl)methanol] |
| 100 to 1000 | COc1cc(-n2cnc(Nc3nc(C(=O)N4CCCC4)c4cccn4n3)c2)cc(OC)c1OC [Compound 419b, pyrrolidin-1-yl(2-((1-(3,4,5-trimethoxyphenyl)-1H-imidazol-4-yl)amino)pyrrolo[2,1-f][1,2,4]triazin-4-yl)methanone] |
| > 1000 | OC[C@@H]1CCCN1c1nc(Nc2cn(-c3ccc(OC(F)(F)F)c(Br)c3)cn2)c2cccn2n1 [Compound 420e, (S)-(1-(4-((1-(3-bromo-4-(trifluoromethoxy)phenyl)-1H-imidazol-4-yl)amino)pyrrolo[2,1-f][1,2,4]triazin-2-yl)pyrrolidin-2-yl)methanol] |
| < 100 | OC[C@@H]1CCCN1c1nc(Nc2cn(-c3ccncc3)cn2)c2cccn2n1 [Compound 421e, (S)-(1-(4-((1-(pyridin-4-yl)-1H-imidazol-4-yl)amino)pyrrolo[2,1-f][1,2,4]triazin-2-yl)pyrrolidin-2-yl)methanol] |
| < 100 | COc1cc(-n2cnc(Nc3nc(N4CCN(CCO)CC4)nc4sccc34)c2)cc(OC)c1OC [Compound 422a, 2-(4-(4-((1-(3,4,5-trimethoxyphenyl)-1H-imidazol-4-yl)amino)thieno[2,3-d]pyrimidin-2-yl)piperazin-1-yl)ethanol] |
| 100 to 1000 | OC[C@@H]1CCCN1c1nc(Nc2cn(-c3ccc4c(c3)OCCO4)cn2)c2cccn2n1 [Compound 423e, (S)-(1-(4-((1-(2,3-dihydrobenzo[b][1,4]dioxin-6-yl)-1H-imidazol-4-yl)amino)pyrrolo[2,1-f][1,2,4]triazin-2-yl)pyrrolidin-2-yl)methanol] |
| < 100 | OC[C@@H]1CCCN1c1nc(Nc2cn(-c3cccc4c3OCO4)cn2)c2cccn2n1 [Compound 424e, (S)-(1-(4-((1-(benzo[d][1,3]dioxol-4-yl)-1H-imidazol-4-yl)amino)pyrrolo[2,1-f][1,2,4]triazin-2-yl)pyrrolidin-2-yl)methanol] |
| 100 to 1000 | OC[C@@H]1CCCN1c1nc(Nc2cn(-c3cccc(O)c3O)cn2)c2cccn2n1 [Compound 424f, (S)-3-(4-((2-(2-(hydroxymethyl)pyrrolidin-1-yl)pyrrolo[2,1-f][1,2,4]triazin-4-yl)amino)-1H-imidazol-1-yl)benzene-1,2-diol] |
| < 100 | OC[C@@H]1CCCN1c1nc(Nc2cn(-c3ccc4c(c3)OCO4)cn2)c2cccn2n1 [Compound 425e, (S)-(1-(4-((1-(benzo[d][1,3]dioxol-5-yl)-1H-imidazol-4-yl)amino)pyrrolo[2,1-f][1,2,4]triazin-2-yl)pyrrolidin-2-yl)methanol] |
| < 100 | COc1cc(C(=O)N(C)C)cc(-n2cnc(Nc3nc(N4CCC[C@H]4CO)nn4cccc34)c2)c1 [Compound 426c, (S)-3-(4-((2-(2-(hydroxymethyl)pyrrolidin-1-yl)pyrrolo[2,1-f][1,2,4]triazin-4-yl)amino)-1H-imidazol-1-yl)-5-methoxy-N,N-dimethylbenzamide] |
| < 100 | CNC(=O)c1cc(OC)cc(-n2cnc(Nc3nc(N4CCC[C@H]4CO)nn4cccc34)c2)c1 [Compound 427b, (S)-3-(4-((2-(2-(hydroxymethyl)pyrrolidin-1-yl)pyrrolo[2,1-f][1,2,4]triazin-4-yl)amino)-1H-imidazol-1-yl)-5-methoxy-N-methylbenzamide] |
| < 100 | OC[C@@H]1CCCN1c1nc(Nc2cn(-c3ccc4c(c3)OCO4)cn2)c2ccsc2n1 [Compound 428b, (S)-(1-(4-((1-(benzo[d][1,3]dioxol-5-yl)-1H-imidazol-4-yl)amino)thieno[2,3-d]pyrimidin-2-yl)pyrrolidin-2-yl)methanol] |
| 100 to 1000 | NC(=O)[C@@H]1CCCN1c1nc(Nc2cn(-c3ccc4c(c3)OCO4)cn2)c2ccsc2n1 [Compound 429a, (S)-1-(4-((1-(benzo[d][1,3]dioxol-5-yl)-1H-imidazol-4-yl)amino)thieno[2,3-d]pyrimidin-2-yl)pyrrolidine-2-carboxamide] |
| < 100 | COc1cc(-n2cnc(Nc3nc(N4CCC[C@H]4CO)c4cnn(C5CCCCO5)c4n3)c2)cc(OC)c1OC (stereo partly drawn) [Compound 430b, ((2S)-1-(1-(tetrahydro-2H-pyran-2-yl)-6-((1-(3,4,5-trimethoxyphenyl)-1H-imidazol-4-yl)amino)-1H-pyrazolo[3,4-d]pyrimidin-4-yl)pyrrolidin-2-yl)methanol] |
| > 1000 | NC(=O)[C@@H]1CCCN1c1nc(Nc2cn(-c3ccc4c(c3)OC(F)(F)O4)cn2)c2ccsc2n1 [Compound 431e, (S)-1-(4-((1-(2,2-difluorobenzo[d][1,3]dioxol-5-yl)-1H-imidazol-4-yl)amino)thieno[2,3-d]pyrimidin-2-yl)pyrrolidine-2-carboxamide] |
| 100 to 1000 | OC[C@@H]1CCCN1c1nc(Nc2cn(-c3ccc4c(c3)OC(F)(F)O4)cn2)c2ccsc2n1 [Compound 432a, (S)-(1-(4-((1-(2,2-difluorobenzo[d][1,3]dioxol-5-yl)-1H-imidazol-4-yl)amino)thieno[2,3-d]pyrimidin-2-yl)pyrrolidin-2-yl)methanol] |
